From patent publication US20160256449A1, “H3 RECEPTOR ANTAGONIST FOR USE IN THE TREATMENT OF ALZHEIMER'S DISEASE” (SANOFI, priority 2013, published 2016)

Legend:
[1] = system: scopolamine treated mice; test: object recognition task in scopolamine-treated mice; assay type: in vivo
From the text: FIG. 2 illustrates the results of the effect of a co-treatment with 2-(cyclohexylmethyl)-N-{2-[(2S)-1-methylpyrrolidin-2-yl]ethyl}-1,2,3,4-tetrahydroisoquinoline-7-sulfonamide and donepezil on recognition memory deficit in scopolamine-treated mice using the object recognition task.
The results of this study are depicted in FIG. 2.

[2] = system: patients with mild to moderate Alzheimer's disease; test: clinical study, ADAS-Cog 11 items; assay type: in vivo, human; details: mITT
From the text: “ADAS-Cog” as used herein, refers to a sensitive and standardized neuropsychological test battery to assess cognitive dysfunction characteristics of patients with AD including memory and orientation, language (aphasia), motor skills (praxis), attention and concentration. The original, standard version consists of 11 items. The total score of these 11-item scores ranges from 0-70 with higher scores indicating greater cognitive impairment. More recently, two additional tasks have been added in a new 13-item version of the scale proposed for patients with mild disease: Delayed Word Recall and Concentration/Distractibility.
A randomized, double-blind, parallel-group, placebo-controlled clinical trial was performed to study the effect on cognitive performance, safety, and tolerability of 2-(cyclohexylmethyl)-N-{2-[(2S)-1-methylpyrrolidin-2-yl]ethyl}-1,2,3,4-tetrahydroisoquinoline-7-sulfonamide difumarate monohydrate as adjunct treatment to donepezil. […]
Patients were randomized to receive 0.5 mg, 2 mg, or 5 mg of 2-(cyclohexylmethyl)-N-{2-[(2S)-1-methylpyrrolidin-2-yl]ethyl}-1,2,3,4-tetrahydroisoquinoline-7-sulfonamide difumarate monohydrate (measured in base form), or matching placebo once a day, with donepezil (5 mg or 10 mg in the form the patient took prior to enrollment), for 24 weeks, with or without food. […]

[3] = system: patients with mild to moderate Alzheimer's disease; test: clinical study, AES-I apathy score; assay type: in vivo, human; details: 5 mg/day with donepezil
Method: “AES-I” as used herein, refers to the Apathy Evaluation Scale for Informant which assess global measure of apathy. Scores range from 18 (best possible) to 72 (worst possible).
(§1) A randomized, double-blind, parallel-group, placebo-controlled clinical trial was performed to study the effect on cognitive performance, safety, and tolerability of 2-(cyclohexylmethyl)-N-{2-[(2S)-1-methylpyrrolidin-2-yl]ethyl}-1,2,3,4-tetrahydroisoquinoline-7-sulfonamide difumarate monohydrate as adjunct treatment to donepezil.
(§2) More specifically, patients with mild to moderate Alzheimer's disease on stable donepezil therapy were randomized to receive doses of 0.5 mg, 2 mg, or 5 mg/day of 2-(cyclohexylmethyl)-N-{2-[(2S)-1-methylpyrrolidin-2-yl]ethyl}-1,2,3,4-tetrahydroisoquinoline-7-sulfonamide difumarate monohydrate or placebo for 24 weeks, with a 10 week follow-up period.
(§3) Patients were randomized to receive 0.5 mg, 2 mg, or 5 mg of 2-(cyclohexylmethyl)-N-{2-[(2S)-1-methylpyrrolidin-2-yl]ethyl}-1,2,3,4-tetrahydroisoquinoline-7-sulfonamide difumarate monohydrate (measured in base form), or matching placebo once a day, with donepezil (5 mg or 10 mg in the form the patient took prior to enrollment), for 24 weeks, with or without food.
Change from baseline to Week 12 and 24 in the Apathy Evaluation Scale for Informant (AES-I) score; and […]

[4] = system: patients with mild to moderate Alzheimer's disease; test: clinical study, responder analysis on combined criterion (ADAS-Cog, ADCS-ADL, CGIC); assay type: in vivo, human; details: week 24
From the text: FIG. 7 illustrates the rate of “responders” at week 24 for the four dose group according to a combined criterion on the ADAS-Cog (2 points improvement vs baseline), ADCS-ADL (no worsening) and CGIC (no worsening) during the clinical study described in Example 2, in the mITT population.
“CGIC” as used herein, refers to the Clinical Global impression of Change assessed (at week 12 and week 24 during the clinical study described in Example 2) by the investigator according to 3 modalities: “Improvement” (includes marked, moderate and minimal improvement), “No change” and “Worsening” (includes minimal, moderate and marked worsening).
FIG. 7 illustrates the responder analysis at week 24 based on a combined criterion defined as followed: […]
change from baseline to Week 24 lower than or equal to −2 points in the ADAS-Cog total score, and
change from baseline to Week 24 greater than or equal to 0 point in the ADCS-ADL global score, and
no worsening according to the CGIC assessment at Week 24.

[5] = system: patients with mild to moderate Alzheimer's disease; test: clinical study, treatment emergent adverse events (TEAE); assay type: in vivo, human; details: for Patients with an TEAE / Patients with any treatment emergent serious adverse event / TEAE: Anxiety / TEAE: Cardiac disorders / TEAE: Depressive disorders / TEAE: Dermatitis / TEAE: Diarrhea / TEAE: Dyspepsia / TEAE: Gastrointestinal disorders / TEAE: Hiatus hernia / TEAE: Infections and infestations / TEAE: Muscle spasm / TEAE: Musculoskeletal and connective tissue disorders / TEAE: Other (Falls) / TEAE: Psychiatric disorders / TEAE: Rashes / TEAE: Skin and subcutaneous tissue disorders / TEAE: Sleep disorders and Disturbance / TEAE: Vascular disorders: with donepezil
Method: as §1, §2, §3

## CN1CCC[C@H]1CCNS(=O)(=O)c1ccc2c(c1)CN(CC1CCCCC1)CC2 [API, 2-(cyclohexylmethyl)-N-{2-[(2S)-1-methylpyrrolidin-2-yl]ethyl}-1,2,3,4-tetrahydroisoquinoline-7-sulfonamide difumarate monohydrate]
[1]; 0.3 mg/kg alone
  activity of the amount given alone, episodic memory deficits: inactive
[1]; 0.3 mg/kg with donepezil hydrochloride 1 mg/kg
  episodic memory deficits, co-treatment: reversed episodic memory deficits
[2]; 5 mg/day with donepezil, at follow-up
  ADAS-Cog score compared to placebo: statistically significant improvement
[2]; after 24 weeks of treatment, with donepezil
  mean differences in the ADAS-Cog change score: not significantly different
[3]; after 12 weeks, mITT
  AES-I change from baseline vs placebo: significant difference
[3]; at 24 weeks and follow-up
  AES-I difference vs placebo: no longer significant
[4]; 5 mg group with donepezil
  rate of responder on a combined criterion (ADAS-Cog, ADCS-ADL, CGIC): 16.7%
[4]; 5 mg/day with donepezil
  rate of responders over placebo: higher rate
[5]; 0.5 mg (N = 72)
  Patients with an TEAE: 53 (73.6%)
  Patients with any treatment emergent serious adverse event: 10 (13.9%)
  TEAE: Anxiety: 3 (4.2%)
  TEAE: Cardiac disorders: 5 (6.9%)
  TEAE: Depressive disorders: 1 (1.4%)
  TEAE: Dermatitis: 1 (1.4%)
  TEAE: Diarrhea: 7 (9.7%)
  TEAE: Dyspepsia: 1 (1.4%)
  TEAE: Gastrointestinal disorders: 11 (15.3%)
  TEAE: Hiatus hernia: 0%
  TEAE: Infections and infestations: 20 (27.8%)
  TEAE: Muscle spasm: 1 (1.4%)
  TEAE: Musculoskeletal and connective tissue disorders: 5 (6.9%)
  TEAE: Other (Falls): 9 (12.5%)
  TEAE: Psychiatric disorders: 21 (29.2%)
  TEAE: Rashes: 1 (1.4%)
  TEAE: Skin and subcutaneous tissue disorders: 7 (9.7%)
  TEAE: Sleep disorders and Disturbance: 12 (16.7%)
  TEAE: Vascular disorders: 2 (2.8%)
[5]; 2 mg (N = 72)
  Patients with an TEAE: 54 (76.1%)
  Patients with any treatment emergent serious adverse event: 10 (14.1%)
  TEAE: Anxiety: 4 (5.6%)
  TEAE: Cardiac disorders: 3 (4.2%)
  TEAE: Depressive disorders: 2 (2.8%)
  TEAE: Dermatitis: 3 (4.2%)
  TEAE: Diarrhea: 7 (9.9%)
  TEAE: Dyspepsia: 1 (1.4%)
  TEAE: Gastrointestinal disorders: 18 (25.4%)
  TEAE: Hiatus hernia: 0%
  TEAE: Infections and infestations: 11 (15.5%)
  TEAE: Muscle spasm: 2 (2.8%)
  TEAE: Musculoskeletal and connective tissue disorders: 12 (16.9%)
  TEAE: Other (Falls): 7 (9.9%)
  TEAE: Psychiatric disorders: 18 (25.4%)
  TEAE: Rashes: 4 (5.6%)
  TEAE: Skin and subcutaneous tissue disorders: 15 (21.1%)
  TEAE: Sleep disorders and Disturbance: 11 (15.5%)
  TEAE: Vascular disorders: 3 (4.3%)
[5]; 5 mg (N = 69)
  Patients with an TEAE: 59 (85.5%)
  Patients with any treatment emergent serious adverse event: 8 (11.6%)
  TEAE: Anxiety: 4 (5.8%)
  TEAE: Cardiac disorders: 5 (7.2%)
  TEAE: Depressive disorders: 5 (7.2%)
  TEAE: Dermatitis: 3 (4.3%)
  TEAE: Diarrhea: 4 (5.8%)
  TEAE: Dyspepsia: 3 (4.3%)
  TEAE: Gastrointestinal disorders: 17 (24.6%)
  TEAE: Hiatus hernia: 3 (4.3%)
  TEAE: Infections and infestations: 16 (23.2%)
  TEAE: Muscle spasm: 7 (10.6%)
  TEAE: Musculoskeletal and connective tissue disorders: 16 (23.2%)
  TEAE: Other (Falls): 7 (10.1%)
  TEAE: Psychiatric disorders: 27 (39.1%)
  TEAE: Rashes: 1 (1.4%)
  TEAE: Skin and subcutaneous tissue disorders: 5 (7.2%)
  TEAE: Sleep disorders and Disturbance: 21 (30.4%)
  TEAE: Vascular disorders: 3 (4.3%)
[5]; 5 mg group
  sleep disorders and disturbances, incidence among groups: highest incidence
[5]; 0.5, 2, 5 mg/day with donepezil, 24 weeks
  safety and tolerability: safe and well tolerated
[5]; all treated groups
  vascular disorders, incidence over placebo: low incidence
